Literature values, collected in patent publication US10105334B2, “Particle formulations of all-trans retinoic acid and transforming growth factor beta for the treatment of type 1 diabetes mellitus” (University of Pittsburgh—Of the Commonwealth System of …, priority 2014, dated 2018).

Settings: Tsang et al., Cytokine 7:389-97 (1995)

Substance: TGFβ: growth factor and immunomodulatory cytokine
- ED50 (physiologically-active concentration): 0.04-0.2 ng/mL
